Source: patent publication US12697328B2, “Methods for treating metastasis with cathepsin C inhibitors” (Shanghai Institute of Nutrition and Health, Chinese Academy …, priority 2020, dated 2026)

B1: rhPR3: recombinant human active PR3 (protein, UniProt P24158 28-248, looked up)
Myeloblastin: IVGGHEAQPHSRPYMASLQMRGNPGSHFCGGTLIHPSFVLTAAHCLRDIPQRLVNVVLGAHNVRTQEPTQQHFSVAQVFLNNYDAENKLNDVLLIQLSSPANLSASVATVQLPQQDQPVPHGTQCLAMGWGRVGAHDPPAQVLQELNVTVVTFFCRPHNICTFVPRRKAGICFGDSGGPLICDGIIQGIDSFVIWGCATRLFPDFFTRVALYVDWIRSTLR

Assays:
Format in all cases: cell-based
[1] = target: T1, membrane-bound PR3 (Homo sapiens, UniProt P24158); assay: Membrane-bound PR3 activity of neutrophils cultured with CM of SCP28 cells overexpressing CTSC; conditions: Sivelestat 10 μM, Alvelestat 10 μM, CTSGi 20 μM, FIG. 7D
T1 construct: endogenous in cells; host or cells: human peripheral-blood neutrophils (whole-cell suspension)
T1 sequence (P24158 28-248): B1 Myeloblastin
Method: The procedure of enzyme activity assays were conducted as previously reported (Korkmaz et aL, “Neutrophil proteinase 3 and dipeptidyl peptidase I (cathepsin C) as pharmacological targets in granulomatosis with polyangiitis (Wegener granulomatosis),” Semin. Immunopathol. 35:411-421 (2008)). The PR3 or NE enzymatic activity was quantified by detecting the rate of hydrolysis of the PR3-specific substrate (Abz)-VADnorVADRQ-(EDDnp) or NE specific substrate (Abz)-APEEIMRRQ-(EDDnp) by cell suspension or free enzymes. To analyze membrane-bound PR3 activity, neutrophils were cultured in cancer cell CM or non-conditioned medium, and treated with DMSO or various inhibitors, including Sivelestat (10 μM), Alvelestat (10 μM) and CTSGi (20 μM) for 30-45 min at 37° C. Then, cells were suspended in activity buffer (5×10^6 per ml, PBS, 4 mM EGTA, pH 7.4) with 15 μM of the PR3-specific substrate, and the kinetic of hydrolysis was followed by measuring the fluorescence at λex=320 nm and λem=420 nm. For activation of PR3 in isolated plasma membrane fraction, recombinant human CTSC (1071-CY, R&D) was activated according to the manufacturer's instruction. […] The activity of free PR3 and NE were measured in the assay buffer (50 mM Tris, 750 mM NaCl, pH 7.4) with 15 μM specific substrates by recording the fluorescence at λex=320 nm and λem=420 nm. […]

[2] = system: IL-1β; assay: IL-1β secretion of neutrophils pre-treated with CM of SCP28 cancer cells (ELISA); conditions: human neutrophils pre-treated with CM of SCP28 with CTSC overexpressed; FIG. 7H
Method: ELISA kits were used to assay the levels of human IL-1β (88-7621-88, ThermoFisher), mouse IL-1β (432604, Biolegend), mouse IL6 (88-7064-88, ThermoFisher), mouse CCL3 (88-56013-88, ThermoFisher) in cell culture supernatants or sera according to the manufacturer's instruction. Briefly, 96-well MaxiSorp™ ELISA Plates (44-2404, ThermoFisher) was coated with capture antibody overnight at 4° C. in coating buffer (15 mM of Na2CO3, 35 mM of NaHCO3, at pH 9.6). After three washes in PBS, the wells were blocked with 5% BSA in PBS for 45 min at room temperature. Then, 100 μl of cell culture supernatants or sera and standard samples were added into the wells and incubated for 2 h at room temperature, and the plates were washed three times with washing buffer (1% BSA, 0.05% Tween-20 in PBS). Next, biotin-conjugated detection antibody in 2.5% BSA was added into the wells and incubated for 2 h at room temperature. After three washes with washing buffer, HRP-streptavidin was incubated for 45 min at room temperature. Then, signals were detected using TMB solution and read at 450 nm.

[3] = system: murine neutrophils; assay: Reactive oxygen species (ROS) analysis of neutrophils pre-treated with 4T07 conditioned medium; conditions: 4T07 CM with CTSC overexpressed, inhibitors 10 μM, FIGS. 8C, 8E
Method: To measure the ROS levels, neutrophils were cultured in cancer cell CM or non-conditioned medium, and treated with DMSO or various inhibitors, including Sivelestat (10 μM), BAY11-7082 (10 μM) and SB203580 (10 μM) for 1 h at 37° C. Cells were then harvested and resuspended in assay buffer (PBS, 4 mM EGTA, pH 7.4, containing 10 μM CM-H2DCFDA, Invitrogen), incubated for 15 min at 37° C. in dark, washed with pre-chilled PBS, followed by FACS analysis within 30 min.
The release of reactive oxygen species (ROS) by neutrophils is known to induce NET formation. […] Commum. 6, 6673 (2015).
ROS analysis of murine neutrophils pre-treated with 4T07 conditioned medium show increased ROS production results from CTSC overexpression (FIG. 8E).

[4] = system: 4T07 cancer cells; assay: Three-dimensional spheroid culture of 4T07 cells in neutrophil medium; conditions: rmTSP-1 alone, FIG. 8H
Method: The procedure of 3D spheroids culture assay was previously reported (Taylor et al., “Lysyl oxidase contributes to mechanotransduction-mediated regulation of transforming growth factor-beta signaling in breast cancer cells,” Neoplasia 13:406-418 (2011)). Briefly, 4T07 cells (200 per well) were cultured in 48-well plates on 100% growth-factor-reduced Matrigel (356231, BD) cushions in spheroid medium (a 1:1 mixture of 1% FBS DMEM and medium from neutrophils cultured in the cancer cell CM, 50% Matrigel supplemented with 50 μg/ml mTSP-1 (7859-TH-050). Upon completed gelation, 250 μl of culture medium (a 1:1 mixture of 1% FBS DMEM and medium from neutrophils cultured in the cancer cell CM) with 10 μg/ml mTSP-1 (7859-TH-050) was added to each well and the culture medium was changed every three days. On day 7-10, the numbers of the spheroids were analyzed.
When both rmTSP-1 and an IL6-blocking antibody are added to CTSC overexpressing 4T07 conditioned medium, spheroid growth is inhibited (FIG. 8I, left panel). […] The inhibitory effects of α-IL6, DNase I, and a combination thereof, on spheroid formation can be seen in the images provided in FIG. 8I.

[5] = system: p38; assay: p38 phosphorylation in neutrophils pre-treated with 4T1 conditioned medium and/or rhPR3; conditions: murine neutrophils pre-treated with 4T1 CM and/or rhPR3, regardless of CTSC knockdown; FIG. 8D
Method: Cultured cells were collected by scraper or trypsinized and then lysed with lysis buffer (50 mM Tris-HCl, 150 mM NaCl, 1% NP-40 detergent, 0.5% sodium deoxycholate, 0.1% SDS with phosphatase and protease inhibitors), and dispersed tissue were homogenized in RIPA buffer on ice for 15 min, followed by centrifugation at 17,000 g for 15 min. The protein concentration was measured with a BCA Protein Assay Kit. Proteins of […] were loaded for membrane proteins, IL-1β processing, p65 phosphorylation and the other assays, respectively, and separated on 8-12% SDS-polyacrylamide gel. For cancer cell conditioned medium (CM) collection, cells were grown to ~80% confluence in 10 cm culture dishes. After three times washing with serum-free medium at 37° C., the cells were incubated in serum-free medium at 37° C. for 24 h. The CM were collected, centrifuged at 2,000 g for 10 min, filtrated by 0.22 μm filters, stored at −80° C. until used. The secreted proteins in CM were collected by TCA precipitation. Briefly, 25% v/v TCA was added into 1 ml CM with phosphatase and protease inhibitors, incubated overnight at 4° C., and then centrifuged at 20,000 g for 60 min, after which the supernatant was discarded and the pellet was washed twice with 1 ml pre-chilled acetone, centrifuged again at 20,000 g for 5 min at 4° C. […]

| Molecule | IL-1β levels (secretion) of neutrophils [2] | ROS production / ROS levels [3] | also measured |
| --- | --- | --- | --- |
| Cc1c(-c2ccnn2C)cc(C(=O)NCc2ccc(S(C)(=O)=O)cn2)c(=O)n1-c1cccc(C(F)(F)F)c1 [Alvelestat] | only PR3 inhibitor Silvelestat reduces | – | upregulated PR3 activity resulting from CTSC overexpression [1]: no effect |
| Cc1ccc(S(=O)(=O)/C=C/C#N)cc1 [BAY 11-7082] | does not reduce | no effect | – |
| C[S+]([O-])c1ccc(-c2nc(-c3ccncc3)c(-c3ccc(F)cc3)[nH]2)cc1 (centres unmarked) [SB203580] | – | significantly reduces | – |
| rmTSP-1: recombinant murine TSP-1, a metastasis-suppressive ECM protein | – | – | spheroid growth of 4T07 cancer cells ([4]; CTSC overexpressing 4T07 conditioned medium): does not block; spheroid growth of 4T07 cancer cells ([4]; neutrophil medium pre-treated with PMA): unable to block |
| B1 | – | – | p38 phosphorylation [5]: increased |
